Consider 3 compounds from PMC11273431, “Isolation, Characterization, and Functional Properties of Antioxidant Peptides from Mulberry Leaf Enzymatic Hydrolysates” (Antioxidants, 2024).

Common to all, as to assay type: cell-based
One data set relates to SOD. In words: SOD activity in HepG2 cells. The note with it: 5–10 μg/mL pretreatment 6 h, then H2O2 160 μM 24 h; p < 0.01. The protocol:
(§1) First, HepG2 cells (1 × 10^5 cells/mL) in a volume of 2 mL were seeded in a 6-well culture plate and incubated at 37 °C for 24 h. Experimental grouping and treatments were the same as in Section 2.9. Next, cells were collected, and cell lysis was performed using RIPA cell lysis solution. The protein concentration in cell lysates was determined by the BCA protein assay kit. SOD (Item No. A001-3-2) and CAT (Item No. A007-1-1) activity assays were carried out according to the instructions provided with the corresponding assay kits.

Data set [1] has as its system HepG2 cells. The experiment in a line: JC-1 staining, mitochondrial membrane potential. The conditions noted are these: 5–10 μg/mL pretreatment 6 h, then H2O2 160 μM 24 h; for JC-1 green fluorescence: fluorescence microscopy; for JC-1 red/green fluorescence ratio: microplate reader, versus H2O2 damage group. The protocol: (§2) HepG2 cells were treated as in Section 2.10. Hoechst 33258 (Item No. C0021) and JC-1 (Item No. M8650) staining was performed according to the instructions provided in the staining kit.
After JC-1 staining, the samples were examined under a fluorescence microscope. […] The red/green fluorescence ratio can be considered a direct indicator of the state of mitochondrial polarization.

Data set [2] relates to HepG2 cells. In words: Apoptosis, Annexin V-FITC/PI flow cytometry. The note with it: 5–10 μg/mL pretreatment 6 h, then H2O2 160 μM 24 h. The protocol:
HepG2 cells were treated as in Section 2.10. After that, cells were collected, rinsed twice with PBS, and then resuspended in Apoptosis Detection Staining solution (containing 2 μL of Annexin V-FITC dye, 5 μL of PI dye, and 100 μL of Binding buffer).
After 15 min of dark incubation at room temperature, cells were analyzed for their apoptotic status (Ex = 488 nm, FL1 EM = 515 nm, FL2 EM = 560 nm) using the BD Fortessa flow cytometer (Becton Dickinson, Franklin Lakes, NJ, USA), and the data were analyzed with Flowjo software 10.0.
A general note: In flow cytometry, cells or beads pass a laser one at a time.

The subject of a further data set is ROS in HepG2 cells. In words: ROS levels, DCFH-DA fluorescence. The conditions noted are these: 5–10 μg/mL pretreatment 6 h, then H2O2 160 μM 24 h; p < 0.01. The method, then: HepG2 cells were treated as in Section 2.10. After that, the supernatant was discarded, and cells were gently washed twice with PBS. Subsequently, the cells were incubated with DMEM containing 10 μM DCFH2-DA at 37 °C for 20 min. After the incubation, the cells were carefully washed twice with PBS, and then 1 mL of DMEM was added, after which the cells were observed under a fluorescence microscope.
The contents of ROS were indicated by DCF fluorescence and quantified using excitation and emission filters of 488 and 525 nm, respectively. The ROS levels were expressed as a percentage of the blank control values.

Another data set has as its system CAT. In words: CAT activity in HepG2 cells. The note with it: 5–10 μg/mL pretreatment 6 h, then H2O2 160 μM 24 h; p < 0.01. The protocol: as §1
Data set [3] deals with HepG2 cells. In words: Protective effect against H2O2-induced oxidative damage, CCK-8. The conditions noted are these: peptide 100 μg/mL pretreatment 6 h, then H2O2 160 μM 24 h. The method, then: We first established a H2O2-induced oxidative damage model in HepG2 cells. HepG2 cells (1 × 10^5 cells/mL) in a volume of 100 μL were seeded in a 96-well culture plate and incubated at 37 °C for 24 h. The control group and damage group received 100 μL of DMEM, the positive control group received 100 μL of 100 μg/mL Trolox, and the experimental group received 100 μL of DMEM containing different concentrations of peptides.
After culturing for another 6 h, the experimental and damage groups were exposed to H2O2 (160 μM) for 24 h, while the control group received an equal volume of DMEM. Finally, cell viability was measured following the procedures in Section 2.8.

Data set [4] relates to HepG2 cells. In words: Hoechst 33258 staining, chromatin damage. The note with it: 5–10 μg/mL pretreatment 6 h, then H2O2 160 μM 24 h; fluorescence microscopy. The method, then:
as §2
Hoechst 33258 staining was directly observed using a fluorescence microscope.

Data set [5] has as its system HepG2 cells. The experiment in a line: Cell viability, CCK-8. The conditions noted are these: 160 μM H2O2, 24 h. The protocol: HepG2 cells were cultured in a complete medium (90% DMEM + 10% FBS + 100 units/mL penicillin and 100 μg/mL streptomycin) at 37 °C, 5% CO2, and 90% relative humidity. The Cell Counting Kit-8 (CCK-8) Assay Kit was used to detect the effect of H2O2 and peptides on cell viability. HepG2 cells (1 × 10^5 cells/mL) were pre-seeded in a 96-well culture plate overnight and then treated with H2O2 and peptides at 37 °C for 24 h. Cell viability was assessed with the CCK-8 kit (Item No. BS350C) according to the protocol supplied by the manufacturer.

For RPGPSPGVGAPGK [Peptide P7], the SOD activity entry in the data set with SOD was “significant increase”. Also, in the data set on HepG2 cells [1], the JC-1 green fluorescence result is “reduced green fluorescence” and the “JC-1 red/green fluorescence ratio” value is “effectively alleviated”. For the same compound, the Apoptosis rate result in the data set with HepG2 cells [2] is “significantly reduced the apoptosis rate”. Moreover, the “Cellular DCF fluorescence intensity (ROS)” value in the data set with ROS in HepG2 cells was “significantly reduced”. In addition, in the data set on CAT, the CAT activity entry is given as “significant increase”. For the same compound, the “Mitigating effect on H2O2-induced oxidative damage (cell survival rate)” value with HepG2 cells [3] is “significantly better than those of the other peptides”. For the same compound, in the data set on HepG2 cells [4], the “Hoechst 33258 nuclear fluorescence (chromatin damage)” value was “reduced blue fluorescence and fewer bright spots”.
`OO` [Peptide H2O2, hydrogen peroxide]: the Cell survival rate with HepG2 cells [5] was ~50%.
As for EGDAGAQGPPGPAGPAGER [Peptide P6], in the data set on SOD, the SOD activity entry is “significant increase”. Besides, in the data set with HepG2 cells [1], the JC-1 green fluorescence result is reported as “reduced green fluorescence” and the “JC-1 red/green fluorescence ratio” value is on record as “effectively alleviated”. Also, the Apoptosis rate result in the data set on HepG2 cells [2] is “significantly reduced the apoptosis rate”. Further, the “Cellular DCF fluorescence intensity (ROS)” value in the data set with ROS in HepG2 cells is listed as “significantly reduced”. In addition, in the data set on CAT, the CAT activity result is recorded as “significant increase”. In addition, the “Mitigating effect on H2O2-induced oxidative damage (cell survival rate)” value with HepG2 cells [3] is “significantly better than those of the other peptides”. For the same compound, the “Hoechst 33258 nuclear fluorescence (chromatin damage)” value in the data set on HepG2 cells [4] was “reduced blue fluorescence and fewer bright spots”.
